Measurements as given in BindingDB's records for doi:10.1074/jbc.M113.510974 (Albert Einstein College of Medicine, 2013).
pKi: −log10 of the molar value.

Key:
Sulfotransferase 1A1 = Sulfotransferase 1A1 (Homo sapiens, UniProt P50225); assay: Amoxapine and Protriptyline Inhibition Assay; settings: pH 7.5; 2 °C
Protocol: (§1) Sulfation of PnP was monitored optically at λ = 415 nm (ε415 = 10.6 mM-1 cm-1 at pH 7.5 [Whittemore et al., Biochemistry, 24:2477-2482).

Sulfotransferase 2A1 = biological target: T1, Sulfotransferase 2A1 (Homo sapiens, UniProt Q06520); assay: Amoxapine and Protriptyline Inhibition Assay; settings: pH 7.5; 2 °C
T1 sequence (Q06520 whole entry): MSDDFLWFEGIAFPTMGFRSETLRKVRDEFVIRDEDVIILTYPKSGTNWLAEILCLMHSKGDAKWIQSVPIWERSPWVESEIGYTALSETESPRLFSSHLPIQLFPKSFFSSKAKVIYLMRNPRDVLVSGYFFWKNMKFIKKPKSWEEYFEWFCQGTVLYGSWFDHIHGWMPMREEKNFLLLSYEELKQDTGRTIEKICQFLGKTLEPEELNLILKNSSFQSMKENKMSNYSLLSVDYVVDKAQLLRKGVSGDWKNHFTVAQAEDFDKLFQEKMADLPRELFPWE
Protocol: as §1

Sequence of Sulfotransferase 1A1 (P50225 whole entry): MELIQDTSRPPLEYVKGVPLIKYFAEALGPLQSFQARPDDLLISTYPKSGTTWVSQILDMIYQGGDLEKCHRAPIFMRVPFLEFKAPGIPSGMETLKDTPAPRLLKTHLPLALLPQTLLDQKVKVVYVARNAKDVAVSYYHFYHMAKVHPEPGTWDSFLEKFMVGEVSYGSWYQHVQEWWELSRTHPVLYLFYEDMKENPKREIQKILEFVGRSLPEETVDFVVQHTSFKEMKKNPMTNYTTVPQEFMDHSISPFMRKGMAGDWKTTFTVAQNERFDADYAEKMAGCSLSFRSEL

| pKi (Sulfotransferase 1A1) | pKi (Sulfotransferase 2A1) | Structure (SMILES) |
| --- | --- | --- |
| 4.46 | 3.90 | Clc1ccc2c(c1)C(N1CCNCC1)=Nc1ccccc1O2 |
| 4.26 | 4.12 | CNCCCC1c2ccccc2C=Cc2ccccc21 [3-(5H-dibenzo[a,d][7]annulen-5-yl)-N-methylpropan-1-amine] |
